Test results reported in patent US20240174637A1, “DEGRADERS OF GRK2 AND USES THEREOF” (Sonata Therapeutics, Inc., priority 2021, published 2024).
pIC50: −log10 of the molar value. Structures can show the parent of a compound that is named as a salt. Where two headings read alike, the source gives them in different places. Values belong to the compound of their own block, whether it stands above or below them.

What was measured:
GRK2 [1] = target: T1, GRK2 (Homo sapiens, UniProt P25098); assay: GRK2 Inhibition Assay (TR-FRET, Example 1); type: biochemical; settings: for IC50: TR-FRET, 7 μM ATP, read-out: Enzymatic GRK2 Assay: IC50 (nM) (Example 1)
T1 sequence (P25098 1-689): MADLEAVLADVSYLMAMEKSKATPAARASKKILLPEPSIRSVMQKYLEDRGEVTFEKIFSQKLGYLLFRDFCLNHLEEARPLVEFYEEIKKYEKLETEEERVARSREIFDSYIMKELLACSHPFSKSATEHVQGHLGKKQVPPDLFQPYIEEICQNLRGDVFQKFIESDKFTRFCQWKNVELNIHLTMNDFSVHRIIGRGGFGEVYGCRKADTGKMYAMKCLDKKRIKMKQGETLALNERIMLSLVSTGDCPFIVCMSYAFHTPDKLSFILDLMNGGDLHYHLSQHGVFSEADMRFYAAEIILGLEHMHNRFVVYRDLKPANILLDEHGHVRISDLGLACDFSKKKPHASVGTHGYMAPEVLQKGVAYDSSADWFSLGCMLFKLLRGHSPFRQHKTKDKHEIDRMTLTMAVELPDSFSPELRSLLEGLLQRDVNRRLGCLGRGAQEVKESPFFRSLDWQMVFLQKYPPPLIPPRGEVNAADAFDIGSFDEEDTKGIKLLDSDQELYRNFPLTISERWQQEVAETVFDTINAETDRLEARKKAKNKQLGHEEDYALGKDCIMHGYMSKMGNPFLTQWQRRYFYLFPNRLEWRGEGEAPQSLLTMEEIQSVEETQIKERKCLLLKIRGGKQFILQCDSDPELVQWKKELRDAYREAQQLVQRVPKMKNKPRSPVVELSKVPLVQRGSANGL
Experimental: Assay: GRK2 enzyme (1 nM final concentration) was diluted in 25 mM HEPES, 10 mM MgCl2, 2 mM DTT, 0.01% Tween-20, and 1 mM EGTA. Then the GRK2 mixture was added into ProxiPlate-384 white plate and pre-incubated for 30 min with test compounds at room temperature. ATP (7 μM final concentration) and Ulight TopoIIα (50 nM final concentration) were added into the assay plate to initiate the reaction and the mixture was incubated at room temperature for 90 min. Then, Eu anti-TopoIIα (0.12 nM final concentration), BSA (0.01% final concentration), and EDTA (11 mM final concentration) in LANCE assay buffer were added into each well. After 60 min incubation time at room temperature, TR-FRET signal was measured by EnVision plate reader.

GRK2 [2] = target: T1, GRK2; assay: GRK2 Degradation Assay and Western Blot in PAXF1657 cells; type: cell-based; set-up: endogenous in cells; host or cells: PAXF1657; settings: read-out: Degradation Assay - 3 point: Degradation (%); for inhibition at 0.3 µM: Conc 0.3 uM; for inhibition at 1 µM: Conc 1 uM; for inhibition at 3 µM: Conc 3 uM
Experimental: General Protocol: Degradation Assay and Western Blot. PAXF1657 cells were plated in 6-well, 24-well plates or 60 mm tissue culture treated dishes and incubated at 37° C. until 70% confluency. The media was aspirated, and the cells were treated with fresh media containing the compounds in the concentration range of 0 μM to 10 μM for a period of 6 to 24 hours. At the desired time points the cells were washed twice with cold PBS and lysed with lysis buffer (ice cold PBS+1% NP40 with 1/100 protease/phosphatase inhibitors) on ice for 8 mins followed by sonication at 70% intensity pulses for 10 seconds. The cells were centrifuged at 20000 g for 8 min at 4° C. The supernatants were collected and stored at −80° C.
Samples were mixed with NuPAGE LDS sample buffer and NuPAGE sample reducing buffer (3×), vortexed and heated at 95° C. for 10 min, and then analyzed by SDS-PAGE (NuPAGE 4-12%) followed by transfer to nitrocellulose membrane. […] The membranes were washed three times with TBST and incubated with GRK2 or R-actin antibodies in 5% milk in TBST at 4° C. overnight. The membranes were washed three times with TBST and incubated with anti-mouse IgG-HRP or anti-rabbit IgG-HRP at room temperature for 2 hours in 5% milk in TBST. The membranes were washed three times with TBST and developed with ECL Dura, ECL femto or ECL atto substrates.

PAXF1657 EV = assay: 7-day cellular proliferation assay (CellTiter-Glo), PAXF1657 EV; type: cell-based; settings: proliferation, read-out: GeoMean IC50 (UM) PAXF1657 EV
Experimental: (§1) In order to identify compounds specific for GRK2, we generated two isogenic cell line pairs of the pancreatic cancer cell line PAXF1657, a pair of cells stably overexpressing GRK2 cDNA or the control empty vector and a cell line pair of PAXF1657 GRK2 knockout clonal cells versus non-targeting control clonal cells.
(§2) Proliferation Assay: Cellular anti-proliferative activity of compounds was assessed by using the pancreatic cancer cell line, PAXF1657, stably overexpressing GRK2 cDNA or the control empty vector, as well as the parental urinary bladder cancer cell line, 5637. In addition, we also took advantage of GRK2 knockout cell lines that were generated via CRISPR. Cell lines were seeded into tissue culture treated, white-walled, 96-well plates at a density of 500 cells/well in RPMI1640 media supplemented with 10% H.I. FBS and penicillin/streptomycin. Plates were incubated overnight at 37° C., 5% CO2 to allow cells to adhere to the wells. GRK2 inhibitors were added to the cells using a 10-point dilution series with a final concentration ranging from 30 μM-0.0002 μM in 0.3% DMSO. At the time of compound addition, a set of plates, that were not treated with compounds, were collected and cell viability was measured using CellTiter-Glo (Promega). CellTiter-Glo reagent was added to the designed plates and luminescence was measuring using a Biotek Synergy plate reader. The compound treated cells were incubated for 3 days at 37° C., 5% CO2. The media was then aspirated from each well and replaced with fresh media containing GRK2 inhibitors. The compound treated cells were then incubated for an additional 4 days at 37° C., 5% CO2. Cell viability was assessed and at end of the 7-day compound treatment by CellTiterGlo.

PAXF1657 KO Clone #4 = assay: 7-day cellular proliferation assay (CellTiter-Glo), PAXF1657 KO Clone #4; type: cell-based; settings: proliferation, read-out: GeoMean IC50 (uM) PAXF1657 KO Clone #4
Experimental: as §1, §2

IC50 (GRK2 [1]): < 100 nM
SMILES: Cc1ncsc1-c1ccc(CNC(=O)[C@@H]2C[C@@H](O)CN2C(=O)[C@@H](NC(=O)CCCCCOCCOCCOCCCCCCOc2ccc(F)c([C@@H](C)NC(=O)c3cccc(NCc4nnc(-c5ccncn5)n4C)c3)c2)C(C)(C)C)cc1 [Compound D75, (2S,4R)-1-((S)-2-(tert-butyl)-22-(4-fluoro-3-((R)-1-(3-(((4-methyl-5-(pyrimidin-4-yl)-4H-1,2,4-triazol-3-yl)methyl)amino)benzamido)ethyl)phenoxy)-4-oxo-10,13,16-trioxa-3-azadocosan-1-oyl)-4-hydroxy-N-(4-(4-methylthiazol-5-yl)benzyl)pyrrolidine-2-carboxamide]

IC50 (GRK2 [1]): < 100 nM
SMILES: Cc1ncsc1-c1ccc(CNC(=O)[C@@H]2C[C@@H](O)CN2C(=O)C(NC(=O)CCCCc2cn(CCCCCCOc3cccc(CNC(=O)c4cccc(NCc5nnc(-c6ccncn6)n5C)c4)c3)nn2)C(C)(C)C)cc1 (stereo partly shown) [Compound D84]

IC50 (GRK2 [1]): 100 to 1000 nM
SMILES: Cc1ncsc1-c1ccc(CNC(=O)[C@@H]2C[C@@H](O)CN2C(=O)[C@@H](NC(=O)CCCCCOCCOCCOCCCCCCOc2ccc(F)c(CNC(=O)c3cccc(NCc4nnc(-c5ccncn5)n4C)c3)c2)C(C)(C)C)cc1 [Compound D88, (2S,4R)-1-((S)-2-(tert-butyl)-22-(4-fluoro-3-((3-(((4-methyl-5-(pyrimidin-4-yl)-4H-1,2,4-triazol-3-yl)methyl)amino)benzamido)methyl)phenoxy)-4-oxo-10,13,16-trioxa-3-azadocosan-1-oyl)-4-hydroxy-N-(4-(4-methylthiazol-5-yl)benzyl)pyrrolidine-2-carboxamide]

IC50 (GRK2 [1]): < 100 nM
SMILES: Cc1ncsc1-c1ccc(CNC(=O)[C@@H]2C[C@H](O)CN2C(=O)[C@@H](NC(=O)CCCCCOCCOCCOCCCCCCOc2cccc(CNC(=O)c3cccc(NCc4nnc(-c5ccncn5)n4C)c3)c2)C(C)(C)C)cc1 [Compound D89]

inhibition at 0.3 µM (GRK2 [2]): 2.78%
inhibition at 1 µM (GRK2 [2]): 35.8%
inhibition at 3 µM (GRK2 [2]): 58.5%
SMILES: Cn1c(CNc2cccc(C(=O)NCc3cccc(OCCCCCOCCCOCC(=O)N4CCN(c5ccc6c(c5)CN(C5CCC(=O)NC5=O)C6=O)CC4)c3)c2)nnc1-c1ccncn1 (stereo not shown) [Compound D189, N-(3-((5-(3-(2-(4-(2-(2,6-dioxopiperidin-3-yl)-1-oxoisoindolin-5-yl)piperazin-1-yl)-2-oxoethoxy)propoxy)pentyl)oxy)benzyl)-3-(((4-methyl-5-(pyrimidin-4-yl)-4H-1,2,4-triazol-3-yl)methyl)amino)benzamide]
pIC50 (PAXF1657 EV): 6.38
IC50 (PAXF1657 KO Clone #4): > 30 µM

inhibition at 0.3 µM (GRK2 [2]): -46.4%
inhibition at 1 µM (GRK2 [2]): 9.8%
inhibition at 3 µM (GRK2 [2]): 32.1%
SMILES: Cn1c(CNc2cccc(C(=O)NCc3cccc(OCCCCCCOCCOCCOCCC(=O)Nc4cccc5c4CN(C4CCC(=O)NC4=O)C5=O)c3)c2)nnc1-c1ccncn1 (stereo not shown) [Compound D195, N-(3-(6-(2-(2-(3-(2-(2,6-dioxopiperidin-3-yl)-1-oxoisoindolin-4-ylamino)-3-oxopropoxy)ethoxy)ethoxy)hexyloxy)benzyl)-3-((4-methyl-5-(pyrimidin-4-yl)-4H-1,2,4-triazol-3-yl)methylamino)benzamide]
pIC50 (PAXF1657 EV): 5.96
IC50 (PAXF1657 KO Clone #4): > 30 µM

Second part, the compound before the results:

SMILES: C[C@H](NC(=O)c1cccc(NCc2nnc(-c3ccncn3)n2C)c1)c1cc(OCCCCCCOCCOCCOCCCCCC(=O)Nc2cccc3c2CN(C2CCC(=O)NC2=O)C3=O)ccc1F (stereo partly drawn) [Compound D53, N-((1S)-1-(5-((6-(2-(2-((6-((2-(2,6-dioxopiperidin-3-yl)-1-oxoisoindolin-4-yl)amino)-6-oxohexyl)oxy)ethoxy)ethoxy)hexyl)oxy)-2-fluorophenyl)ethyl)-3-(((4-methyl-5-(pyrimidin-4-yl)-4H-1,2,4-triazol-3-yl)methyl)amino)benzamide]
IC50 (GRK2 [1]): 100 to 1000 nM

SMILES: C[C@@H](NC(=O)c1cccc(NCc2nnc(-c3ccncn3)n2C)c1)c1cc(OCCCCCCOCCOCCOCCCCCC(=O)Nc2cccc3c2CN(C2CCC(=O)NC2=O)C3=O)ccc1F (stereo partly drawn) [Compound D54, N-((1R)-1-(5-((6-(2-(2-((6-((2-(2,6-dioxopiperidin-3-yl)-1-oxoisoindolin-4-yl)amino)-6-oxohexyl)oxy)ethoxy)ethoxy)hexyl)oxy)-2-fluorophenyl)ethyl)-3-(((4-methyl-5-(pyrimidin-4-yl)-4H-1,2,4-triazol-3-yl)methyl)amino)benzamide]
IC50 (GRK2 [1]): < 100 nM

SMILES: C[C@H](NC(=O)c1cccc(NCc2nnc(-c3ccncn3)n2C)c1)c1cccc(OCCCCCCOCCOCCOCCCCCC(=O)Nc2cccc3c2CN(C2CCC(=O)NC2=O)C3=O)c1 (stereo partly drawn) [Compound D55, N-((1S)-1-(3-((6-(2-(2-((6-((2-(2,6-dioxopiperidin-3-yl)-1-oxoisoindolin-4-yl)amino)-6-oxohexyl)oxy)ethoxy)ethoxy)hexyl)oxy)phenyl)ethyl)-3-(((4-methyl-5-(pyrimidin-4-yl)-4H-1,2,4-triazol-3-yl)methyl)amino)benzamide]
IC50 (GRK2 [1]): < 100 nM

SMILES: Cc1ncsc1-c1ccc(CNC(=O)[C@@H]2C[C@@H](O)CN2C(=O)[C@@H](NC(=O)CCCCCOCCOCCOCCCCCCOc2ccc(F)c([C@H](C)NC(=O)c3cccc(NCc4nnc(-c5ccncn5)n4C)c3)c2)C(C)(C)C)cc1 [Compound D74, (2S,4R)-1-((S)-2-(tert-butyl)-22-(4-fluoro-3-((S)-1-(3-(((4-methyl-5-(pyrimidin-4-yl)-4H-1,2,4-triazol-3-yl)methyl)amino)benzamido)ethyl)phenoxy)-4-oxo-10,13,16-trioxa-3-azadocosan-1-oyl)-4-hydroxy-N-(4-(4-methylthiazol-5-yl)benzyl)pyrrolidine-2-carboxamide]
IC50 (GRK2 [1]): 100 to 1000 nM

SMILES: C[C@H](NC(=O)c1cccc(NCc2nnc(-c3ccncn3)n2C)c1)c1ccc(OCCCCN2CCN(c3ccc4c(c3)CN(C3CCC(=O)NC3=O)C4=O)CC2)cc1 (stereo partly drawn) [Compound D117, N-((1S)-1-(4-(4-(4-(2-(2,6-dioxopiperidin-3-yl)-1-oxoisoindolin-5-yl)piperazin-1-yl)butoxy)phenyl)ethyl)-3-((4-methyl-5-(pyrimidin-4-yl)-4H-1,2,4-triazol-3-yl)methylamino)benzamide hydrochloride]
pIC50 (GRK2 [1]; Table 4, Example 1 assay, read-out: Enzymatic GRK2 IC50: Av IC50 GRK2): < 6.00
inhibition at 0.3 µM (GRK2 [2]): 12.3%
inhibition at 1 µM (GRK2 [2]): -20.5%
inhibition at 3 µM (GRK2 [2]): -4.97%
